Assay results from PubChem BioAssay AID2060604 (Molecular Pharmacology Branch, DTP, NCI, 2025).

Test system: 379773-124-R-J2-PDC complex spheroids, viability % test/control
Assay: Anticancer human tumor 379773-124-R-J2-PDC patient-derived endometrial carcinoma cell line growth inhibition [CLK]
Details: for IC50: curve of first compound; for viability, T/C: stronger effect = lower value
Method in brief: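 Patient-derived tumor cells grown as complex spheroids with HUVEC endothelial cells and mesenchymal stem cells, treated with drug combinations. Concentrations descend in half-log steps from near clinical Cmax, or from 10 microM if Cmax unknown.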

[1] = second compound 0.0316 µM, first compound 0.0316 µM
[2] = second compound 0.0316 µM, first compound 0.1 µM
[3] = second compound 0.0316 µM, first compound 0.316 µM
[4] = second compound 0.0316 µM, first compound 1 µM
[5] = second compound 0.0316 µM, first compound 3.16 µM
[6] = second compound 0.0316 µM, first compound 10 µM
[7] = second compound 0.1 µM, first compound 0.0316 µM
[8] = second compound 0.1 µM, first compound 0.1 µM
[9] = second compound 0.1 µM, first compound 0.316 µM
[10] = second compound 0.1 µM, first compound 1 µM
[11] = second compound 0.1 µM, first compound 3.16 µM
[12] = second compound 0.1 µM, first compound 10 µM
[13] = second compound 0.316 µM, first compound 0.0316 µM
[14] = second compound 0.316 µM, first compound 0.1 µM
[15] = second compound 0.316 µM, first compound 0.316 µM
[16] = second compound 0.316 µM, first compound 1 µM
[17] = second compound 0.316 µM, first compound 3.16 µM
[18] = second compound 0.316 µM, first compound 10 µM
[19] = second compound 1 µM, first compound 0.0316 µM
[20] = second compound 1 µM, first compound 0.1 µM
[21] = second compound 1 µM, first compound 0.316 µM
[22] = second compound 1 µM, first compound 1 µM
[23] = second compound 1 µM, first compound 3.16 µM
[24] = second compound 1 µM, first compound 10 µM
[25] = second compound 3.16 µM, first compound 0.0316 µM
[26] = second compound 3.16 µM, first compound 0.1 µM
[27] = second compound 3.16 µM, first compound 0.316 µM
[28] = second compound 3.16 µM, first compound 1 µM
[29] = second compound 3.16 µM, first compound 3.16 µM
[30] = second compound 3.16 µM, first compound 10 µM
[31] = second compound 10 µM, first compound 0.0316 µM
[32] = second compound 10 µM, first compound 0.1 µM
[33] = second compound 10 µM, first compound 0.316 µM
[34] = second compound 10 µM, first compound 1 µM
[35] = second compound 10 µM, first compound 3.16 µM
[36] = second compound 10 µM, first compound 10 µM
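Also: compound exposure lasted seven days before the viability readout.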
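For viability, T/C in this document: 100% = DMSO vehicle control wells.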

CC(C)CC(NC(=O)C(Cc1ccccc1)NC(=O)c1cnccn1)B(O)O (stereo unspecified) + CNC(=O)c1ccc(Nc2nc(OC3CCCC3)c3c(-c4ccc5nc(C)oc5c4)c[nH]c3n2)c(OC)c1
IC50 (second compound 0.0316 µM): 1.54 nM | IC50 (second compound 0.1 µM): < 0.949 nM | IC50 (second compound 0.316 µM): < 0.949 nM | IC50 (second compound 1 µM): < 0.949 nM | IC50 (second compound 3.16 µM): < 0.949 nM | IC50 (second compound 10 µM): < 0.949 nM | viability, T/C (second compound 0.0316 µM, first compound 0.000949 µM): 81.6% | viability, T/C (second compound 0.0316 µM, first compound 0.003 µM): 6.67% | viability, T/C (second compound 0.0316 µM, first compound 0.00949 µM): 0.17% | viability, T/C (second compound 0.0316 µM, first compound 0.03 µM): 0.19% | viability, T/C (second compound 0.0316 µM, first compound 0.0949 µM): 0.13% | viability, T/C (second compound 0.0316 µM, first compound 0.3 µM): 0.1% | viability, T/C (second compound 0.1 µM, first compound 0.000949 µM): 33.4% | viability, T/C (second compound 0.1 µM, first compound 0.003 µM): 3.4% | viability, T/C (second compound 0.1 µM, first compound 0.00949 µM): 0.32% | viability, T/C (second compound 0.1 µM, first compound 0.03 µM): 0.13% | viability, T/C (second compound 0.1 µM, first compound 0.0949 µM): 0.12% | viability, T/C (second compound 0.1 µM, first compound 0.3 µM): 0.09% | viability, T/C (second compound 0.316 µM, first compound 0.000949 µM): 42.3% | viability, T/C (second compound 0.316 µM, first compound 0.003 µM): 1.94% | viability, T/C (second compound 0.316 µM, first compound 0.00949 µM): 0.13% | viability, T/C (second compound 0.316 µM, first compound 0.03 µM): 0.1% | viability, T/C (second compound 0.316 µM, first compound 0.0949 µM): 0.08% | viability, T/C (second compound 0.316 µM, first compound 0.3 µM): 0.08% | viability, T/C (second compound 1 µM, first compound 0.000949 µM): 31.1% | viability, T/C (second compound 1 µM, first compound 0.003 µM): 1.88% | viability, T/C (second compound 1 µM, first compound 0.00949 µM): 0.11% | viability, T/C (second compound 1 µM, first compound 0.03 µM): 0.1% | viability, T/C (second compound 1 µM, first compound 0.0949 µM): 0.08% | viability, T/C (second compound 1 µM, first compound 0.3 µM): 0.08% | viability, T/C (second compound 3.16 µM, first compound 0.000949 µM): 30.1% | viability, T/C (second compound 3.16 µM, first compound 0.003 µM): 0.38% | viability, T/C (second compound 3.16 µM, first compound 0.00949 µM): 0.11% | viability, T/C (second compound 3.16 µM, first compound 0.03 µM): 0.09% | viability, T/C (second compound 3.16 µM, first compound 0.0949 µM): 0.1% | viability, T/C (second compound 3.16 µM, first compound 0.3 µM): 0.13% | viability, T/C (second compound 10 µM, first compound 0.000949 µM): 33.1% | viability, T/C (second compound 10 µM, first compound 0.003 µM): 0.42% | viability, T/C (second compound 10 µM, first compound 0.00949 µM): 0.13% | viability, T/C (second compound 10 µM, first compound 0.03 µM): 0.11% | viability, T/C (second compound 10 µM, first compound 0.0949 µM): 0.16% | viability, T/C (second compound 10 µM, first compound 0.3 µM): 0.12%

CC1COCCN1c1cc(C2(S(C)(=N)=O)CC2)nc(-c2ccnc3[nH]ccc23)n1 (stereo unspecified) + CNC(=O)c1ccc(Nc2nc(OC3CCCC3)c3c(-c4ccc5nc(C)oc5c4)c[nH]c3n2)c(OC)c1
IC50 (second compound 0.0316 µM): 1870 nM | IC50 (second compound 0.1 µM): < 31.6 nM | IC50 (second compound 0.316 µM): < 31.6 nM | IC50 (second compound 1 µM): < 31.6 nM | IC50 (second compound 3.16 µM): < 31.6 nM | IC50 (second compound 10 µM): < 31.6 nM | viability, T/C [1]: 78% | viability, T/C [2]: 83.8% | viability, T/C [3]: 86.2% | viability, T/C [4]: 67.2% | viability, T/C [5]: 34.5% | viability, T/C [6]: 9.32% | viability, T/C [7]: 42.7% | viability, T/C [8]: 44.6% | viability, T/C [9]: 36.1% | viability, T/C [10]: 42.7% | viability, T/C [11]: 26% | viability, T/C [12]: 9.26% | viability, T/C [13]: 42.6% | viability, T/C [14]: 38.5% | viability, T/C [15]: 39.1% | viability, T/C [16]: 41.5% | viability, T/C [17]: 30.1% | viability, T/C [18]: 12.7% | viability, T/C [19]: 40.6% | viability, T/C [20]: 36.1% | viability, T/C [21]: 37% | viability, T/C [22]: 36.5% | viability, T/C [23]: 20.5% | viability, T/C [24]: 5.75% | viability, T/C [25]: 27.9% | viability, T/C [26]: 34% | viability, T/C [27]: 31.9% | viability, T/C [28]: 31.4% | viability, T/C [29]: 21.4% | viability, T/C [30]: 5.79% | viability, T/C [31]: 29.7% | viability, T/C [32]: 40.1% | viability, T/C [33]: 28.9% | viability, T/C [34]: 24.9% | viability, T/C [35]: 24.2% | viability, T/C [36]: 4.37%

O=C(c1cc(Cc2n[nH]c(=O)c3ccccc23)ccc1F)N1CCN(C(=O)C2CC2)CC1 + CNC(=O)c1ccc(Nc2nc(OC3CCCC3)c3c(-c4ccc5nc(C)oc5c4)c[nH]c3n2)c(OC)c1
IC50 (second compound 0.0316 µM): 5600 nM | IC50 (second compound 0.1 µM): < 31.6 nM | IC50 (second compound 0.316 µM): < 31.6 nM | IC50 (second compound 1 µM): < 31.6 nM | IC50 (second compound 3.16 µM): < 31.6 nM | IC50 (second compound 10 µM): < 31.6 nM | viability, T/C [1]: 76.2% | viability, T/C [2]: 75.1% | viability, T/C [3]: 67.7% | viability, T/C [4]: 75.4% | viability, T/C [5]: 69.9% | viability, T/C [6]: 29.6% | viability, T/C [7]: 41.1% | viability, T/C [8]: 41.7% | viability, T/C [9]: 37.8% | viability, T/C [10]: 31.9% | viability, T/C [11]: 36.3% | viability, T/C [12]: 15.3% | viability, T/C [13]: 51.7% | viability, T/C [14]: 42.3% | viability, T/C [15]: 35.5% | viability, T/C [16]: 33.7% | viability, T/C [17]: 33% | viability, T/C [18]: 13.7% | viability, T/C [19]: 39.9% | viability, T/C [20]: 32.2% | viability, T/C [21]: 29.8% | viability, T/C [22]: 33.3% | viability, T/C [23]: 23.2% | viability, T/C [24]: 10.2% | viability, T/C [25]: 32.8% | viability, T/C [26]: 34.1% | viability, T/C [27]: 26.3% | viability, T/C [28]: 33.5% | viability, T/C [29]: 31% | viability, T/C [30]: 8.47% | viability, T/C [31]: 29.5% | viability, T/C [32]: 29.9% | viability, T/C [33]: 24.8% | viability, T/C [34]: 23.9% | viability, T/C [35]: 23.2% | viability, T/C [36]: 6.48%
